# According to patent US20250195521A1 (Revolution Medicines, Inc., priority 2020, published 2025):
# Assays:
# [1] = tested on: SW1573; details: Canon et al. 2019; cited from earlier work
# [2] = tested on: SW1573; details: cited from earlier work
# [3] = tested on: SW1573 cells; details: cited from earlier work
# [4] = tested on: PAN02 tumors (SHP2 G503V); test: PAN02 syngeneic tumor model (Example 2); type: in vivo, mouse
# [5] = tested on: LN229 tumors (SHP2 A72S); test: LN229 CDX xenograft model (Example 5); type: in vivo, mouse; details: 100 mg/kg po qd
# Procedure: (§1) Mice were implanted with (A) PAN02 tumor cells (1e6 cells/mouse) or (B) LN229 tumor cells in 50% matrigel (10e6 cells/mouse) subcutaneously in the flank. Once tumors reached an average size of ˜200 mm^3 mice were randomized to treatment groups and administration of test article or vehicle (2% HPMC E-50, 0.5% Tween-80 in 50 mM Sodium Citrate Buffer, pH 4.0). Body weight and tumor volume (using digital calipers) were measured twice a week until study endpoints. Compounds were administered by oral gavage daily.
# [6] = tested on: PAN02 tumors (SHP2 G503V); test: PAN02 syngeneic tumor model (Example 5); type: in vivo, mouse; details: 100 mg/kg po qd and 250 mg/kg po qd
# Procedure: as §1
# [7] = tested on: SHP2 variants expressed in T-REx-293 (HEK-293) cells; test: pERK AlphaLISA in isogenic T-REx-293-SHP2 cells, EGF stimulated; type: cell-based; details: SHP2 G503V
# Procedure: Assay data was plotted and EC50 values were determined using four-parameter concentration-response model in GraphPad Prism 7. Data provided are mean+/−standard deviation of duplicate values from representative experiments.
# [8] = tested on: PAN02 cells (SHP2 G503V); test: pERK AlphaLISA in PAN02 cells; type: cell-based, mouse; details: PAN02, up to highest test concentration of 10 μM
# From the text: (§2) In this example, two mouse tumor cell lines, KLN205 (lung squamous cell carcinoma) and PAN02 (pancreatic cancer), were characterized.
# (§3) See FIGS. 5A through 5D, which are graphs depicting the pERK AlphaLISA® assay.
# [9] = tested on: Capan-2 tumors (KRAS G12V/wt); test: Capan-2 KRAS G12V/wt xenograft efficacy; type: in vivo, mouse; details: RMC-4550 20 mg/kg po every other day; Compound A 100 mg/kg po bid; Day 40
# Procedure: Capan-2 cells were implanted in 50% Matrigel. Animals were randomized and treatment was initiated at average tumor volume of ˜180 mm3. […] Ns=no significance; *** p<0.001 by one-way ANOVA.
# Once tumors reached an average size of ˜180 mm3, mice were randomized to treatment groups to start the administration of test articles or vehicle. […] Body weight and tumor volume (using calipers) was measured twice weekly until study endpoints.
# [10] = tested on: KLN205 cells (SHP2 G503V); test: CellTiter-Glo viability in KLN205 cells; type: cell-based, mouse; details: KLN205, up to highest test concentration of 10 μM
# From the text: as §2, §3
# [11] = tested on: LN229.E76K tumors (PTPN11 E76K); test: LN229.E76K glioblastoma xenograft (Example 8); type: in vivo, mouse; details: PO daily; Compound SOS1-(C) 50 mg/kg, RMC-4550 30 mg/kg, cobimetinib […]
# Procedure: 6-7 week athymic nude mice were implanted with LN229.E76K in 50% matirgel (10×10^6 cells/mouse) subcutaneously in the flank. Once tumors reached an average size of 200 mm^3, mice were randomized into treatment groups to start the administration of test articles or control. All treatments were administered daily by oral gavage. Body weight and tumor volume (using calipers) was measured twice weekly until study endpoint.
# [12] = tested on: PAN02 cells (SHP2 G503V); test: CellTiter-Glo viability in PAN02 cells; type: cell-based, mouse; details: PAN02, up to highest test concentration of 10 μM
# From the text: as §2, §3
# [13] = tested on: KLN205 cells (SHP2 G503V); test: pERK AlphaLISA in KLN205 cells; type: cell-based, mouse; details: KLN205, up to highest test concentration of 10 μM
# From the text: as §2, §3
# [14] = tested on: KLN205 tumors (SHP2 G503V); test: KLN205 syngeneic tumor model (Example 2); type: in vivo, mouse; details: KLN205, DBA/2 mice; RMC-4550 30 mg/kg daily oral
# [15] = tested on: PAN02 tumors (PTPN11 G503V); test: PAN02 PTPN11 G503V syngeneic model (Example 12); type: in vivo, mouse; details: PO daily; Compound SOS1-(C) 100 mg/kg for 7 days then 50 mg/kg, abemaciclib 30 mg/kg
# Procedure: (§4) The combinatorial effects of Compound SOS1-(C) with Abemaciclib on tumor cell growth in vivo were evaluated in the murine pancreatic ductal adenocarcinoma PAN02 PTPN11G503V syngeneic model using female C57BL/6J mice (6-7 weeks old). Mice were implanted with PAN02 tumor cells in PBS (5 ×10^6cells/mouse) subcutaneously in the flank. Once tumors reached an average size of ˜130 mm3, mice were randomized to treatment groups to start the administration of test articles or control. All test articles were administered by oral gavage daily. Body weight and tumor volume (using calipers) was measured twice weekly until study endpoints.
# [16] = tested on: PAN02 tumors (PTPN11 G503V); test: PAN02 PTPN11 G503V syngeneic model (Example 10); type: in vivo, mouse; details: PO daily
# Procedure: as §4, with “cobimetinib” for “Abemaciclib”, “mm^3,” for “mm3,”
# [17] = tested on: LN229.E76K tumors (PTPN11 E76K); test: LN229.E76K glioblastoma xenograft (Example 11); type: in vivo, mouse; details: PO daily; Compound SOS1-(B) 50 mg/kg, cobimetinib 2.5, and combination
# Procedure: The combinatorial effects of Compound SOS1-(B) with cobimetinib on tumor cell growth in vivo were evaluated in a human engineered model of PTPN11-mutant glioblastoma, LN229.E76K xenograft model using female athymic nude mice (6-7 weeks old). Mice were implanted with LN229.E76K tumor cells in 50% Matrigel (10×10^6cells/mouse) subcutaneously in the flank. Once tumors reached an average size of ˜200 mm3, mice were randomized to treatment groups to start the administration of test articles or control. All test articles were administered by oral gavage daily. Body weight and tumor volume (using calipers) was measured twice weekly until study endpoints.
# [18] = tested on: NCI-H358 KRASG12C xenograft; test: In vivo NSCLC K-Ras G12C xenograft model; set-up: species or system BALB/c nude mice; details: single agent
# Procedure: (§5) Mice were implanted with NCI-H358 tumor cells in 50% Matrigel (5×10^6 cells/mouse) subcutaneously in the flank. At the indicated tumor volume (dotted line, FIG. 2A), mice were randomized to treatment groups to start the administration of test articles or vehicle. […] Body weight and tumor volume (using calipers) was measured twice weekly until study endpoints.
# Mice were implanted with NCI-H358 tumor cells in 50% Matrigel (5×10^6 cells/mouse) subcutaneously in the flank. At indicated tumor volume (dotted line, FIG. 3A), mice were randomized to treatment groups to start the administration of test articles or vehicle. […] Cobimetinib was administered by daily oral gavage at 2.5 mg/kg. The combination of Compound B and cobimetinib at their respective single-agent dose and regimen was also tested. Body weight and tumor volume (using calipers) was measured twice weekly until study endpoints.
# as §5, with “At” for “At the”, “4A),” for “2A),”
# [19] = tested on: NCI-H358 cells; test: 72-hour proliferation assay using CellTiter-Glo, NCI-H358; type: cell-based, human; details: read-out: EC50, 72-hour proliferation assay
# Procedure: The plate was placed in the Incucyte S3 live cell analysis system (37° C., 5% CO2) and confluence was measured by recording images at 6-hour intervals for a maximum of 40 days, or until wells reached maximal confluence. Media and drug were replaced at 3-4 day intervals. Data are plotted as % confluence over the time course of the experiment for each single agent and respective combination (FIG. 5).
structure (smiles),measurement,setting,value
"C=CC(=O)N1CCN(c2nc(=O)n(-c3c(C)ccnc3C(C)C)c3nc(-c4c(O)cccc4F)c(F)cc23)[C@@H](C)C1 [AMG510, sotorasib]",sensitivity of SW1573,[1],insensitive
same,sensitivity of cell line,[2],insensitive
same,sensitivity of cell line,[3],insensitive
COC1(C(=O)N2Cc3nc(Cl)nc(C[C@H](C)c4cc(N)cc(C(F)(F)F)c4)c3C2)CCOCC1 [Compound SOS1-(A)],inhibition of tumor growth in vivo,"[4]; PAN02, immunocompetent mice, Compound SOS1-(A) 100 mg/kg daily oral",substantially higher levels of tumor growth inhibition
same,inhibition of tumor growth in vivo,[5],near complete inhibition of tumor growth
same,inhibition of tumor growth in vivo,[6],near complete inhibition of tumor growth
Cc1nc(N2CCC3(CC2)CO[C@@H](C)[C@H]3N)c(CO)nc1-c1cccc(Cl)c1Cl [RMC-4550],tumor growth inhibition,"[4]; PAN02, C57/B6 mice, RMC-4550 40 mg/kg every 2 days oral",less than 50%
same,IC50,[7],> 30000 nM
same,inhibition of pERK,[8],low or moderate inhibition
same,TGI,[9],39%
same,inhibition of cell growth,[10],low or moderate inhibition
same,tumor growth inhibition (TGI),[11],7%
same,inhibition of cell growth,[12],low or moderate inhibition
same,inhibition of pERK,[13],low or moderate inhibition
same,tumor growth inhibition,[14],less than 50%
CCN1CCN(Cc2ccc(Nc3ncc(F)c(-c4cc(F)c5nc(C)n(C(C)C)c5c4)n3)nc2)CC1 [abemaciclib],tumor growth inhibition (TGI),[15],52%
O=C(c1ccc(F)c(F)c1Nc1ccc(I)cc1F)N1CC(O)([C@@H]2CCCCN2)C1 [cobimetinib],tumor growth inhibition (TGI),"[16]; Compound SOS1-(C) 100 mg/kg, cobimetinib […]",38%
same,tumor growth inhibition (TGI),[16]; cobimetinib 5 mg/kg,49%
same,tumor growth inhibition (TGI),[17],62%
same,tumor growth inhibition (TGI),[11],41%
same,tumor growth response,"[18]; A 100 mg/kg po daily 28 days, B 50 mg/kg iv twice weekly, cobimetinib […] po daily, C 60 mg/kg iv once weekly",tumor growth inhibition
same,mice with tumor regression (of 10),"[18]; regression = greater than 10% reduction of tumor volume, SHP2 inhibitor 30 mg/kg po daily",no tumor regressions
CC(=O)Nc1cccc(-n2c(=O)n(C3CC3)c(=O)c3c(Nc4ccc(I)cc4F)n(C)c(=O)c(C)c32)c1 [trametinib],EC50,[19],10 nM
